Measurements taken from paper PMC9114115, “Property space mapping of Pseudomonas aeruginosa permeability to small molecules” (Scientific Reports, 2022).
≈ marks a conversion by molar mass, not a printed value. Where “and” joins values, the source holds several entries; their conditions need not be identical. Equal entries are not always repeated. Where two headings read alike, the source gives them in different places.

What was measured:
P. aeruginosa PAO1 = assay: MIC by two-fold dilution, wild type PAO1; format: cell-based, Pseudomonas aeruginosa
Experimental: (§1) In all experiments, P. aeruginosa PAO1-Pore (PAO1 attTn7::PLAC-fhuA) and PΔ3-Pore (ΔmexAB ΔmexCD ΔmexXY attTn7::PLAC-fhuA) strains were used[29]. Strains were routinely grown in Luria–Bertani (LB) or MOPS-M9 medium at 37 °C with aeration. MICs shown in Tables 1 and 2 were determined by a two-fold dilution method in LB broth and MOPS-M9 medium, respectively, following the previously described protocol.

P. aeruginosa PAO1-Pore = assay: MIC by two-fold dilution, hyperporinated PAO1-Pore; format: cell-based, Pseudomonas aeruginosa; settings: for MICs: PAO1-Pore; for MIC: Pseudomonas aeruginosa
Experimental: as §1

P. aeruginosa PΔ3 = assay: microbe, parasite or virus in culture; format: cell-based, Pseudomonas aeruginosa; settings: for MIC: Pseudomonas aeruginosa; for MICs: P∆3, MOPS-M9 medium
Experimental: as §1

P. aeruginosa PΔ3-Pore = assay: MIC by two-fold dilution, barrierless PΔ3-Pore; format: cell-based, Pseudomonas aeruginosa; settings: for MIC: Pseudomonas aeruginosa; for MICs: P∆3-Pore
Experimental: as §1

P. aeruginosa PAO1 cells = assay: LC–MS quantification of intracellular accumulation, PAO1; settings: 10-80 µM; for Concentration slopes of accumulation, PAO1_1 min: 1 min incubation; for Concentration slopes of accumulation, PAO1_40 min: 40 min incubation;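 on all read-outs here: slope of accumulation versus external concentration fitted as a line through zero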
How it was run: (§2)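 Cells grown in MOPS-M9 (pH 7.2) with 1% glycerol, Pore strains induced with 0.1 mM IPTG, concentrated 10X in spent medium and exposed to 10, 20, 40, 80 µM compound for 1 and 40 min at RT. Filter-collected cells extracted with methanol; compound quantified by positive-ion LC–MS against calibration in PAO1 cell extract, no-cell filter controls.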

[1] = tested on: P. aeruginosa PAO1-Pore cells; assay: LC–MS quantification of intracellular accumulation, PAO1-Pore; settings: 10-80 µM; for Concentration slopes of accumulation, PAO1-Pore_1 min: 1 min incubation; for Concentration slopes of accumulation, PAO1-Pore_40 min: 40 min incubation;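 on all read-outs here: slope of accumulation versus external concentration fitted as a line through zero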
How it was run: as §2

P. aeruginosa PΔ3 cells = settings: 10-80 µM; for Concentration slopes of accumulation, PΔ3_1 min: 1 min incubation; for Concentration slopes of accumulation, PΔ3_40 min: 40 min incubation;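 on all read-outs here: slope of accumulation versus external concentration fitted as a line through zero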
How it was run: as §2

[2] = tested on: P. aeruginosa PΔ3-Pore cells; assay: LC–MS quantification of intracellular accumulation, PΔ3-Pore; settings: 10-80 µM; for Concentration slopes of accumulation, PΔ3-Pore_1 min: 1 min incubation; for Concentration slopes of accumulation, PΔ3-Pore_40min: 40 min incubation;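 on all read-outs here: slope of accumulation versus external concentration fitted as a line through zero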
How it was run: as §2

P. aeruginosa = settings: sheet "Good" permeators; all listed compounds are good permeators
Experimental: The measured levels of compound accumulation were analyzed using machine learning to determine which features of the compounds are most important for enabling their cellular accumulation and to determine their optimal values. […] To accentuate the permeability aspect, the accumulation slopes in efflux-deficient and hyperporinated strains were normalized to those in the parental PAO1 strain.
To help visualize the data, we performed a principal component (PC) decomposition of the data.

[3] = tested on: four strains of P. aeruginosa; format: cell-based, Pseudomonas aeruginosa
Experimental: Cells were sub-cultured (50–100 mL) 1:100 in fresh LB broth in two flasks per strain. At OD600 0.3 (~ 1.5 to 2 h of incubation), the expression of the pore was induced with 0.1 mM IPTG (final concentration) in one of the flasks and cells were grown for additional 1 to 1.5 h (OD600 1- 1.5). Cells were collected by centrifugation at room temperature (RT) and washed in PMG Buffer (50 mM KPi, pH 7.0, 1 mM MgSO4, 0.4% glucose, prepared fresh) and concentrated 20x (i.e., 100 mL culture resuspended in 5 ml of PMG Buffer with final OD600 ~ 20–30). Assays were performed in 96-well 1.0 µm Glass Fiber Type B filters plates (Millipore). […]
[…] Filter plates were dried, removed from the vacuum manifold and left in the hood overnight to dry completely.

[4] = Pseudomonas aeruginosa, PAO1, MOPS-M9 medium, read-out: MICs
[5] = read-out: MICs, P∆3-Pore, MOPS-M9 medium

Compound | MIC (P. aeruginosa PAO1; [4]) | MICs (P. aeruginosa PAO1-Pore; LB broth, Table S2) | MIC (P. aeruginosa PAO1-Pore; PAO1, read-out: MICs) | MIC (P. aeruginosa PΔ3; read-out: MICs) | MIC (P. aeruginosa PΔ3-Pore; [5]) | MICs (P. aeruginosa PΔ3-Pore; LB broth, Table S2) | Concentration slopes of accumulation, PAO1_1 min (P. aeruginosa PAO1 cells) | Concentration slopes of accumulation, PAO1_40 min (P. aeruginosa PAO1 cells) | Concentration slopes of accumulation, PAO1-Pore_1 min [1] | Concentration slopes of accumulation, PAO1-Pore_40 min [1] | Concentration slopes of accumulation, PΔ3_1 min (P. aeruginosa PΔ3 cells) | Concentration slopes of accumulation, PΔ3_40 min (P. aeruginosa PΔ3 cells) | Concentration slopes of accumulation, PΔ3-Pore_1 min [2] | Concentration slopes of accumulation, PΔ3-Pore_40min [2] | Cluster of the identified "good" permeators (P. aeruginosa) | further results
COc1c(N2CCNC(C)C2)c(F)cc2c(=O)c(C(=O)O)cn(C3CC3)c12 (stereo not shown) [OU-0000623, GATIFLOXACIN] | 2 µM and 0.8 µg/mL | 0.25 | 0.0625 µM and 0.02 µg/mL | 0.5 µM and 0.2 µg/mL | 0.031 µM and 0.01 µg/mL | 0.0039 | 1.47 | 6.10 | 2.29 | 4.14 | 1.11 | 4.13 | 1.90 | 5.45 | 1 | –
CS(=O)(=O)O.C[C@H]1COc2c(C3(N)CC3)c(F)cc3c(=O)c(C(=O)O)cn1c23 [OU-0000627, PAZUFLOXACIN MESYLATE] | – | 0.25 | – | – | – | 0.0156 | – | – | 5.79 | 7.45 | 3.81 | 5.01 | 5.45 | 5.72 | 1 | MIC (P. aeruginosa PAO1; PAO1, MOPS-M9 medium, read-out: MICs): 0.5 µM; MICs (P. aeruginosa PAO1-Pore; MOPS-M9 medium): 0.03 mg/L; MICs (P. aeruginosa PAO1-Pore; MOPS-M9 medium, listed as Pazufloxacin mesylate): 0.0625 µM; MICs (P. aeruginosa PΔ3): 0.05 mg/L; MICs (P. aeruginosa PΔ3; listed as Pazufloxacin mesylate): 0.125 µM; MICs (P. aeruginosa PΔ3-Pore; MOPS-M9 medium): 0.031 μM and 0.01 mg/L
Cc1oc(=O)oc1CN1CCN(c2cc3c(cc2F)c(=O)c(C(=O)O)c2n3C(C)S2)CC1 (stereo not shown) [OU-0000631, PRULIFLOXACIN] | 0.5 µM and 0.23 µg/mL | 0.0625 | 0.016 µM and 0.01 µg/mL | 0.125 µM and 0.06 µg/mL | 0.004 µM and 0.002 µg/mL | 0.0039 | 10.64 | 11.45 | 7.49 | 9.31 | 7.35 | 8.36 | 5.06 | 5.20 | 3 | –
Cc1cc(C)nc(NS(=O)(=O)c2ccc(N)cc2)n1 [OU-0000689, SULFAMETHAZINE] | > 200 µM and > 60.1 µg/mL | – | 50 µM and 15 µg/mL | 100 µM and 30 µg/mL | 12.5 µM and 3.75 µg/mL | – | 1.42 | 1.40 | 1.53 | 1.05 | 1.31 | 1.35 | 1.54 | 1.19 | 1 | –
CCn1cc(C(=O)O)c(=O)c2cc(F)c(N3CCNCC3)cc21 [OU-0000789, Norfloxacin] | 1.25 µM and 0.4 µg/mL | 1 | 0.2 µM and 0.06 µg/mL | 0.625 µM and 0.2 µg/mL | 0.1 µM and 0.03 µg/mL | 0.0156 | 37.81 | 32.76 | 31.44 | 54.56 | 15.28 | 26.08 | 25.07 | 33.05 | 3 | –
CC(=O)NC[C@H]1CN(c2ccc(N3CCOCC3)c(F)c2)C(=O)O1 [OU-0031508, linezolid] | > 200 µM and > 67.5 µg/mL | 25 | 200 µM (≈ 67.5 µg/mL) | 200 µM (≈ 67.5 µg/mL) | 25 µM (≈ 8.43 µg/mL) | 12.5 | 34.71 | 41.30 | 12.71 | 26.51 | 39.20 | 25.30 | 30.83 | 28.73 | 3 | –
Cc1cc(C(C)(C)C)c(O)c(C)c1CC1=NCCN1 [Oxymetazoline] | – | – | – | – | – | – | – | – | – | – | – | – | – | – | – | MIC (P. aeruginosa PAO1; Pseudomonas aeruginosa, PAO1, LB broth, Table 1, read-out: MIC): > 1000 µM; MIC (P. aeruginosa PAO1-Pore; PAO1): > 1000 µM; MIC (P. aeruginosa PΔ3): 1000 µM (≈ 260 µg/mL); MIC (P. aeruginosa PΔ3-Pore; PΔ3-Pore, LB broth, Table 1): 1000 µM (≈ 260 µg/mL); accumulated radioactivity washed out of cells ([3]; PΔ3-Pore cells, 30 min incubation, 0.1 mL wash): 95%; effect of efflux inactivation and hyperporination on accumulation ([3]; radioactively labeled compound, four strains, 20 min): Efflux inactivation or hyperporination resulted in a similar increase
